Source: patent publication US20230181674A1, “ALLERGEN PROTECTION AGAINST URUSHIOLS” (BEIERSDORF AG, priority 2020, published 2023)

Test: direct peptide reactivity assay (DPRA), in-chemico, unbound peptide detected with Ellman's reagent
Details: 24 h reaction; allergen 5 mM, peptide 0.5 mM; absorbance at 415 nm with DTNB; urushiol structures I-V; n = 3; FIG. 2
Method: The absorbance is plotted on the y-axis. The peptide-allergen reactions were realized according to a direct peptide reactivity assay. The test is referred to as the in-chemico method, that is to say no cells are used, but a chemical reaction is carried out.
The direct peptide reaction assay (DPRA) is an OECD-validated test method.
The native, still-unbound peptide is detected by reaction with Ellman’s reagent and corresponding absorbance measurement. The direct peptide reactivity assay (DPRA) is a chemical method for predicting epidermal protein binding. DPRA uses for example HPLC to measure the depletion of peptides in solution after exposure to test chemicals.
RFAACAA was selected as an example of a peptide of the invention.
In the DPRA method, the absorbance at 415 nm is determined as the measured variable.
The allergen concentration is in the investigations carried out a standard 5 mM and thus 10 times the concentration of the peptide used (0.5 mM).
The reaction courses shown were determined colorimetrically through the reaction of the peptide with Ellmann’s reagent in a photometer. In this reaction, DTNB ((5,5′-dithiobis-2-nitrobenzoic acid, Ellmann’s reagent) is cleaved and attached to the SH residue of the amino acid cysteine of the peptides of the invention (RFAACAA).
The SH radical is at the same time the reactive binding site of the peptide with the allergens. […]

RFAACAA [Arg Phe Ala Ala Cys Ala Ala]
reactivity of peptides with urushiol allergens (fall in peptide, protective activity): very high reactivity

acetyl-arginine-phenylalanine-alanine-alanine-cysteine-alanine-alanine [Ac-RFAACAA]
reactivity of peptides with urushiol allergens (fall in peptide, protective activity): very high reactivity
